Measured values: patent publication US12077503B2, “Substituted cyclic amides and their use as herbicides” (FMC CORPORATION, priority 2015, dated 2024)

Key:
Assay type in all cases: in vivo
[1] = test system: Kochia (Kochia scoparia); assay: Test A preemergence; conditions: Preemergence; for Plant response rating, Kochia: 125 g ai/ha, visual injury after approximately 10 d, 0 to 100 scale where 0 is no effect and 100 is complete control; for Kochia plant response rating (0 to 100 scale, 0 is no effect, 100 is complete control): 500 g ai/ha, visual injury approx. 10 d
Excerpt: (§1) Seeds of plant species selected from barnyardgrass (Echinochloa crus-galli), Kochia (Kochia scoparia), ragweed (common ragweed, Ambrosia elatior), ryegrass, Italian (Italian ryegrass, Lolium multiflorum), crabgrass, large (Digitaria sanguinalis), giant foxtail (Setaria faberii), green foxtail (Setaria viridis), morningglory (Ipomoea spp.), pigweed (Amaranthus retroflexus), velvetleaf (Abutilon theophrasti), wheat (Triticum aestivum), and corn (Zea mays) were planted into a blend of loam soil and sand and treated preemergence with a directed soil spray using test chemicals formulated in anon-phytotoxic solvent mixture which included a surfactant.
(§2) At the same time, plants selected from these crop and weed species and also blackgrass (Alopecurus myosuroides), and Galium (catchweed bedstraw, Galium aparine) were planted in pots containing the same blend of loam soil and sand and treated with postemergence applications of test chemicals formulated in the same manner. Plants ranged in height from 2 to 10 cm and were in the one- to two-leaf stage for the postemergence treatment. Treated plants and untreated controls were maintained in a greenhouse for approximately 10 d, after which time all treated plants were compared to untreated controls and visually evaluated for injury. Plant response ratings, summarized in Table A, are based on a 0 to 100 scale where 0 is no effect and 100 is complete control. A dash (-) response means no test result.

[2] = test system: barnyardgrass (Echinochloa crus-galli); assay: Test A preemergence; conditions: Preemergence; for Plant response rating, Barnyardgrass: 125 g ai/ha, visual injury after approximately 10 d, 0 to 100 scale where 0 is no effect and 100 is complete control; for Barnyardgrass plant response rating (0 to 100 scale, 0 is no effect, 100 is complete control): 500 g ai/ha, visual injury approx. 10 d
Excerpt: as §1, §2

[3] = test system: giant foxtail (Setaria faberii); assay: Test A preemergence; conditions: Preemergence; for Plant response rating, Foxtail, Giant: 125 g ai/ha, visual injury after approximately 10 d, 0 to 100 scale where 0 is no effect and 100 is complete control; for Foxtail, Giant plant response rating (0 to 100 scale, 0 is no effect, 100 is complete control): 500 g ai/ha, visual injury approx. 10 d
Excerpt: as §1, §2

[4] = test system: pigweed (Amaranthus retroflexus); assay: Test A preemergence; conditions: Preemergence; for Plant response rating, Pigweed: 125 g ai/ha, visual injury after approximately 10 d, 0 to 100 scale where 0 is no effect and 100 is complete control; for Pigweed plant response rating (0 to 100 scale, 0 is no effect, 100 is complete control): 500 g ai/ha, visual injury approx. 10 d
Excerpt: as §1, §2

[5] = test system: ragweed (common ragweed, Ambrosia elatior); assay: Test A preemergence; conditions: Preemergence; for Plant response rating, Ragweed: 125 g ai/ha, visual injury after approximately 10 d, 0 to 100 scale where 0 is no effect and 100 is complete control; for Ragweed plant response rating (0 to 100 scale, 0 is no effect, 100 is complete control): 500 g ai/ha, visual injury approx. 10 d
Excerpt: as §1, §2

[6] = test system: ryegrass, Italian (Italian ryegrass, Lolium multiflorum); assay: Test A preemergence; conditions: Preemergence; for Plant response rating, Ryegrass, Italian: 125 g ai/ha, visual injury after approximately 10 d, 0 to 100 scale where 0 is no effect and 100 is complete control; for Ryegrass, Italian plant response rating (0 to 100 scale, 0 is no effect, 100 is complete control): 500 g ai/ha, visual injury approx. 10 d
Excerpt: as §1, §2

[7] = test system: Galium (catchweed bedstraw, Galium aparine); assay: Test A postemergence
Excerpt: as §1, §2

[8] = test system: Kochia (Kochia scoparia); assay: Test A postemergence
Excerpt: as §1, §2

[9] = test system: barnyardgrass (Echinochloa crus-galli); assay: Test A postemergence
Excerpt: as §1, §2

[10] = test system: blackgrass (Alopecurus myosuroides); assay: Test A postemergence
Excerpt: as §1, §2

[11] = test system: corn (Zea mays); assay: Test A postemergence
Excerpt: as §1, §2

[12] = test system: giant foxtail (Setaria faberii); assay: Test A postemergence
Excerpt: as §1, §2

[13] = test system: pigweed (Amaranthus retroflexus); assay: Test A postemergence
Excerpt: as §1, §2

[14] = test system: ragweed (common ragweed, Ambrosia elatior); assay: Test A postemergence
Excerpt: as §1, §2

[15] = test system: ryegrass, Italian (Italian ryegrass, Lolium multiflorum); assay: Test A postemergence
Excerpt: as §1, §2

[16] = test system: wheat (Triticum aestivum); assay: Test A postemergence
Excerpt: as §1, §2

[17] = test system: barnyardgrass (Echinochloa crus-galli); assay: Test B flooded paddy test; conditions: Flood, 250 g ai/ha; 0 to 100 scale where 0 is no effect and 100 is complete control; 13 to 15 d
Protocol: (§3) Plant species in the flooded paddy test selected from rice (Oryra sativa), sedge, umbrella (small-flower umbrella sedge, Cyperus difformis), ducksalad (Heteranthera limosa), and barnyardgrass (Echinochloa crus-galli) were grown to the 2-leaf stage for testing. At time of treatment, test pots were flooded to 3 cm above the soil surface, treated by application of test compounds directly to the paddy water, and then maintained at that water depth for the duration of the test. Treated plants and controls were maintained in a greenhouse for 13 to 15 d, after which time all species were compared to controls and visually evaluated. Plant response ratings, summarized in Table B, are based on a scale of 0 to 100 where 0 is no effect and 100 is complete control. A dash (-) response means no test result.

[18] = test system: ducksalad (Heteranthera limosa); assay: Test B flooded paddy test; conditions: Flood, 250 g ai/ha; 0 to 100 scale where 0 is no effect and 100 is complete control; 13 to 15 d
Protocol: as §3

[19] = test system: rice (Oryra sativa); assay: Test B flooded paddy test; conditions: Flood, 250 g ai/ha; 0 to 100 scale where 0 is no effect and 100 is complete control; 13 to 15 d
Protocol: as §3

[20] = test system: sedge, umbrella (small-flower umbrella sedge, Cyperus difformis); assay: Test B flooded paddy test; conditions: Flood, 250 g ai/ha; 0 to 100 scale where 0 is no effect and 100 is complete control; 13 to 15 d
Protocol: as §3

[21] = 125 g ai/ha, postemergence, visual rating after approx. 10 d, 0 to 100 scale (0 no effect, 100 complete control)
[22] = Postemergence, 500 g ai/ha, 0 to 100 scale where 0 is no effect and 100 is complete control

Row | SMILES | Plant response rating, Kochia [1] | Kochia plant response rating (0 to 100 scale, 0 is no effect, 100 is complete control) [1] | Plant response rating, Barnyardgrass [2] | Barnyardgrass plant response rating (0 to 100 scale, 0 is no effect, 100 is complete control) [2] | Plant response rating, Foxtail, Giant [3] | Foxtail, Giant plant response rating (0 to 100 scale, 0 is no effect, 100 is complete control) [3] | Plant response rating, Pigweed [4] | Pigweed plant response rating (0 to 100 scale, 0 is no effect, 100 is complete control) [4] | Plant response rating, Ragweed [5] | Ragweed plant response rating (0 to 100 scale, 0 is no effect, 100 is complete control) [5] | Plant response rating, Ryegrass, Italian [6] | Ryegrass, Italian plant response rating (0 to 100 scale, 0 is no effect, 100 is complete control) [6] | Plant response rating, Galium [7, 21] | Plant response rating, Galium [7, 22] | Plant response rating, Kochia [8, 21] | Plant response rating, Kochia [8, 22] | Plant response rating, Barnyardgrass [9, 21] | Plant response rating, Barnyardgrass [9, 22] | Plant response rating, Blackgrass [10, 21] | Plant response rating, Blackgrass [10, 22] | other results
1 | O=C1NCC(c2cc(C(F)(F)F)cc(C(F)(F)F)c2)C1C(=O)Nc1cccc(F)c1F (stereo not drawn) [Compound 588] | 0 | 0 | 90 | 90 | 90 | 90 | 0 | 0 | 0 | 0 | 80 | 50 | 0 | 30 | 0 | 70 | 80 | 80 | 20 | 50 | Plant response rating, Corn [11, 21]: 0; Plant response rating, Corn [11, 22]: 70; Plant response rating, Foxtail, Giant [12, 21]: 80; Plant response rating, Foxtail, Giant [12, 22]: 80; Plant response rating, Pigweed [13, 21]: 20; Plant response rating, Pigweed [13, 22]: 40; Plant response rating, Ragweed [14, 21]: 0; Plant response rating, Ragweed [14, 22]: 50; Plant response rating, Ryegrass, Italian [15, 21]: 0; Plant response rating, Ryegrass, Italian [15, 22]: 50; Plant response rating, Wheat [16, 21]: 0; Plant response rating, Wheat [16, 22]: 40; Plant response rating, Barnyardgrass [17]: 30; Plant response rating, Ducksalad [18]: 70; Plant response rating, Rice [19]: 30; Plant response rating, Sedge, Umbrella [20]: 0
2 | O=C1NCC(c2ccsc2Br)C1C(=O)Nc1cccc(F)c1F (stereo not drawn) [Compound 598] | 0 | 0 | 0 | 60 | 0 | 60 | 0 | 0 | 0 | 0 | 0 | 20 | 0 | 30 | 0 | 20 | 10 | 80 | 0 | 0 | Plant response rating, Corn [11, 21]: 0; Plant response rating, Corn [11, 22]: 0; Plant response rating, Foxtail, Giant [12, 21]: 0; Plant response rating, Foxtail, Giant [12, 22]: 20; Plant response rating, Pigweed [13, 21]: 0; Plant response rating, Pigweed [13, 22]: 0; Plant response rating, Ragweed [14, 21]: 0; Plant response rating, Ragweed [14, 22]: 20; Plant response rating, Ryegrass, Italian [15, 21]: 0; Plant response rating, Ryegrass, Italian [15, 22]: 0; Plant response rating, Wheat [16, 21]: 0; Plant response rating, Wheat [16, 22]: 0; Plant response rating, Barnyardgrass [17]: 0; Plant response rating, Ducksalad [18]: 65; Plant response rating, Rice [19]: 0; Plant response rating, Sedge, Umbrella [20]: 0
